± gives the standard deviation of the averaged measurements.

For the series, the system named is HEK293 NF-kB-luciferase reporter cells. The series can be described thus: NF-kB luciferase reporter activity, robust Z-score vs plate median (robust Z-score (log luminescence)); higher = stronger NF-kB reporter activation. Particulars: TNF treatment time 8.5 h, transfection time 72 h. The method, then: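 Primary screen of an Ambion Pre-miR miRNA mimic library (miRBase v8.0, 1.6 pmol/well, 384-well, duplicate) reverse-transfected into HEK293 cells stably expressing a 5x NF-kB firefly luciferase reporter. After 72 h the cells were treated with vehicle or TNF (40 ng/mL) for 8.5 h and luminescence was read (BriteLite). Raw luminescence was log-transformed and converted to a robust Z-score per plate: (x - plate median)/plate MAD. Sequence given is the mature miRNA strand of the double-stranded mimic.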

As to CUGUGCGUGUGACAGCGGCUGA, the “NF-kB luciferase reporter activity” value was 0.091 ± 0.43 (TNF 0 ng/mL) and -2.3857 ± 0.00042 (TNF 40 ng/mL).

As for CUUUCAGUCGGAUGUUUACAGC, the “NF-kB luciferase reporter activity” value (TNF 0 ng/mL) was -0.449 ± 0.15 and the “NF-kB luciferase reporter activity” value (TNF 40 ng/mL) stood at 1 ± 0.025.

For the sequence CUUUUUGCGGUCUGGGCUUGC, the “NF-kB luciferase reporter activity” value runs as follows: (TNF 0 ng/mL) 0.334 ± 0.36; (TNF 40 ng/mL) -0.65 ± 0.076.

With GAAGGCGCUUCCCUUUAGAGC, the “NF-kB luciferase reporter activity” value is, setting by setting: (TNF 0 ng/mL) -0.845 ± 0.78; (TNF 40 ng/mL) -0.47 ± 0.02.

Consider GAAGGCGCUUCCCUUUGGAGU, for which the “NF-kB luciferase reporter activity” value by setting is: (TNF 0 ng/mL) -0.702 ± 0.69; (TNF 40 ng/mL) -0.567 ± 0.046.

As to GAAGUGCUUCGAUUUUGGGGUGU, the “NF-kB luciferase reporter activity” value is -1.7 ± 0.2 (TNF 0 ng/mL) and -0.363 ± 0.1 (TNF 40 ng/mL).

In the case of GAAGUUGUUCGUGGUGGAUUCG, the “NF-kB luciferase reporter activity” value (TNF 0 ng/mL) was -0.0557 ± 0.33 and the “NF-kB luciferase reporter activity” value (TNF 40 ng/mL) was -0.602 ± 0.087.

On to GAGGUUGUCCGUGGUGAGUUCG, for which the “NF-kB luciferase reporter activity” value by setting is: (TNF 0 ng/mL) -0.468 ± 0.88; (TNF 40 ng/mL) -2.08 ± 0.48.

On to GAGUGCCUUCUUUUGGAGCGU, for which the “NF-kB luciferase reporter activity” value runs as follows: (TNF 0 ng/mL) -0.314 ± 0.76; (TNF 40 ng/mL) -0.822 ± 0.14.

In the case of GCAAAGCACACGGCCUGCAGAGA, the “NF-kB luciferase reporter activity” value is -0.287 ± 0.28 (TNF 0 ng/mL) and -0.658 ± 0.027 (TNF 40 ng/mL).

Regarding GCACAUUACACGGUCGACCUCU, the “NF-kB luciferase reporter activity” value runs as follows: (TNF 0 ng/mL) -0.263 ± 0.11; (TNF 40 ng/mL) 1.28 ± 0.042.

GCCCCUGGGCCUAUCCUAGAA: the “NF-kB luciferase reporter activity” value was 1.22 ± 0.89 (TNF 0 ng/mL) and 0.489 ± 0.046 (TNF 40 ng/mL).

On to GCCUGCUGGGGUGGAACCUGG, for which the “NF-kB luciferase reporter activity” value runs as follows: (TNF 0 ng/mL) -0.469 ± 0.36; (TNF 40 ng/mL) 0.451 ± 0.051.

As for GCUGCGCUUGGAUUUCGUCCCC, the “NF-kB luciferase reporter activity” value (TNF 0 ng/mL) is -0.0918 ± 0.13 and the “NF-kB luciferase reporter activity” value (TNF 40 ng/mL) was determined as 0.328 ± 0.013.

As to GGAGAAAUUAUCCUUGGUGUGU, the “NF-kB luciferase reporter activity” value (TNF 0 ng/mL) was 0.189 ± 0.13 and the “NF-kB luciferase reporter activity” value (TNF 40 ng/mL) stood at 0.256 ± 0.16.

As to GGUAGAUUCUCCUUCUAUGAG, the “NF-kB luciferase reporter activity” value (TNF 0 ng/mL) is -0.702 ± 0.69 and the “NF-kB luciferase reporter activity” value (TNF 40 ng/mL) was -1.25 ± 0.063.

Consider GUCAACACUUGCUGGUUUCCUC, for which the “NF-kB luciferase reporter activity” value (TNF 0 ng/mL) is -0.0513 ± 0.073 and the “NF-kB luciferase reporter activity” value (TNF 40 ng/mL) was -0.799 ± 0.029.

For GUCAUACACGGCUCUCCUCUCU, the “NF-kB luciferase reporter activity” value reads like this: (TNF 0 ng/mL) 0.54 ± 0.4; (TNF 40 ng/mL) -1.19 ± 0.14.

With GUGAAAUGUUUAGGACCACUAG, the “NF-kB luciferase reporter activity” value (TNF 0 ng/mL) amounted to 0.966 ± 1.4 and the “NF-kB luciferase reporter activity” value (TNF 40 ng/mL) was determined as 0.9884 ± 0.0031.

For the sequence GUGCCGCCAUCUUUUGAGUGU, the “NF-kB luciferase reporter activity” value is, setting by setting: (TNF 0 ng/mL) 0.919 ± 0.46; (TNF 40 ng/mL) -1.45 ± 0.12.

For the sequence GUGCCUACUGAGCUGAUAUCAGU, the “NF-kB luciferase reporter activity” value runs as follows: (TNF 0 ng/mL) -0.791 ± 0.86; (TNF 40 ng/mL) 0.339 ± 0.13.

For the sequence GUGUCUUUUGCUCUGCAGUCA, the “NF-kB luciferase reporter activity” value by setting is: (TNF 0 ng/mL) 0.568 ± 0.32; (TNF 40 ng/mL) 0.168 ± 0.045.

Take GUGUGUGGAAAUGCUUCUGC: the “NF-kB luciferase reporter activity” value by setting is: (TNF 0 ng/mL) 0.447 ± 0.27; (TNF 40 ng/mL) -1.04 ± 0.03.

With UAAACGUGGAUGUACUUGCUUU, the “NF-kB luciferase reporter activity” value reads like this: (TNF 0 ng/mL) -0.000139 ± 0.48; (TNF 40 ng/mL) 0.83 ± 0.16.

UAACACUGUCUGGUAAAGAUGG: the “NF-kB luciferase reporter activity” value is, setting by setting: (TNF 0 ng/mL) 0.999 ± 0.35; (TNF 40 ng/mL) 1.415 ± 0.012.

Consider UAACAGUCUCCAGUCACGGCC, for which the “NF-kB luciferase reporter activity” value by setting is: (TNF 0 ng/mL) -0.0296 ± 0.44; (TNF 40 ng/mL) -0.939 ± 0.1.

For UAAGGCACCCUUCUGAGUAGA, the “NF-kB luciferase reporter activity” value by setting is: (TNF 0 ng/mL) -1.29 ± 0.15; (TNF 40 ng/mL) -3.27 ± 0.24.

On to UAAGUGCUUCCAUGUUUGAGUGU, for which the “NF-kB luciferase reporter activity” value is -1.48 ± 0.11 (TNF 0 ng/mL) and -0.618 ± 0.12 (TNF 40 ng/mL).

In the case of UAAGUGCUUCCAUGUUUUGGUGA, the “NF-kB luciferase reporter activity” value is, setting by setting: (TNF 0 ng/mL) -1.29 ± 0.15; (TNF 40 ng/mL) -0.801 ± 0.13.

UAAUACUGCCGGGUAAUGAUGG: the “NF-kB luciferase reporter activity” value turned out to be 0.0214 ± 0.44 (TNF 0 ng/mL) and 1.06 ± 0.17 (TNF 40 ng/mL).

Turning to UAAUACUGCCUGGUAAUGAUGAC, the “NF-kB luciferase reporter activity” value was 0.744 ± 0.84 (TNF 0 ng/mL) and 1.37 ± 0.22 (TNF 40 ng/mL).

UAAUACUGUCUGGUAAAACCGU: the “NF-kB luciferase reporter activity” value by setting is: (TNF 0 ng/mL) -0.175 ± 0.95; (TNF 40 ng/mL) 0.65 ± 0.15.

UACAGUAUAGAUGAUGUACUAG: the “NF-kB luciferase reporter activity” value runs as follows: (TNF 0 ng/mL) 0.343 ± 0.35; (TNF 40 ng/mL) 0.659 ± 0.17.

UACUCAGGAGAGUGGCAAUCACA: the “NF-kB luciferase reporter activity” value (TNF 0 ng/mL) came out at 1.06 ± 0.93 and the “NF-kB luciferase reporter activity” value (TNF 40 ng/mL) was -0.306 ± 0.029.

As to UAGCACCAUCUGAAAUCGGUU, the “NF-kB luciferase reporter activity” value (TNF 0 ng/mL) was 0.81 ± 0.93 and the “NF-kB luciferase reporter activity” value (TNF 40 ng/mL) is -2.2 ± 0.16.

Regarding UAGCAGCGGGAACAGUUCUGCAG, the “NF-kB luciferase reporter activity” value reads like this: (TNF 0 ng/mL) 0.878 ± 0.18; (TNF 40 ng/mL) 0.834 ± 0.021.
